Results published in patent US6384237B1, “Pyrylium compound, process for making the same, nucleic acid stain, and labeled nucleic acid” (Canon Kabushiki Kaisha, priority 1999, dated 2002).

Key:
salmon sperm DNA [1] = experiment: Absorption spectrophotometry of the pyrylium compound free and mixed with salmon sperm DNA; type: binding; settings: DNA 50 μg/ml, compound 3×10^−5 M, 10 mM phosphate buffer pH 7.0
Experimental: Compound 3 prepared in Example 1 (2-(3-carboxypropyl)-4,6-bis(4-N,N-dimethylaminophenyl)pyrylium iodide) was dissolved into a 10 mM phosphate buffer solution (pH 7.0) to prepare Solution IA. A fraction of Solution IA was diluted to a final concentration of 3×10^−5 M, and the diluted solution was subjected to absorption spectrophotometry. The absorption spectrum is denoted by (A) in FIG. 1.
A DNA solution was prepared using salmon sperm DNA (mfd. by Sigma-Aldrich Co.) which was adequately purified according to a conventional method. A fraction of the DNA solution and a fraction of Solution IA were mixed to prepare Solution IB in which the final DNA concentration was 50 μg/ml and the final concentration of Compound 3 was 3×10^−5 M. A fraction of Solution IB was subjected to absorption spectrophotometry. The absorption spectrum is denoted by (B) in FIG. 1.
With reference to spectrum (A) of Compound 3 and spectrum (B) of Solution IB in FIG. 1, the absorption bands of Solution IB are shifted to longer wavelengths by 30 nm and absorbance is decreased due to interaction between Compound 3 and the DNA. These changes can be attributed to the intercalative characteristics of Compound 3.
Compound 6 prepared in Example 3 (2-(2-carboxyethyl)-4,6-bis(4-N,N-dimethylaminophenyl)pyrylium iodide) was dissolved into a 10 mM phosphate buffer solution (pH 7.0) to prepare Solution IIA. A fraction of Solution IIA was diluted to a final concentration of 3×10^−5 M, and the diluted solution was subjected to absorption spectrophotometry. The absorption spectrum is denoted by (A) in FIG. 4.
A DNA solution was prepared using salmon sperm DNA (Sigma-Aldrich Co.) which was adequately purified according to a conventional method. A fraction of the DNA solution and a fraction of Solution IIA were mixed to prepare Solution IIB in which the final DNA concentration was 50 μg/ml and the final concentration of Compound 6 was 3×10^−5 M. A fraction of Solution IIB was subjected to absorption spectrophotometry. The absorption spectrum is denoted by (B) in FIG. 4.
With reference to spectrum (A) of Compound 6 and spectrum (B) of Solution IIB in FIG. 4, the absorption bands of Solution IIB are shifted to longer wavelengths by 30 nm and absorbance is decreased due to interaction between Compound 6 and the DNA. These changes can be attributed to intercalative characteristics of Compound 6.

salmon sperm DNA [2] = experiment: Spectrofluorimetry of the pyrylium compound with and without salmon sperm DNA; type: binding; settings: excitation 550 nm; for fluorescence of solution not containing DNA: no DNA; for fluorescence wavelength of solution containing DNA (fluoresces intensely): with salmon sperm DNA
Experimental: A fraction of Solution IA and a fraction of Solution IB were diluted so that the concentration of Compound 3 was the same in these diluted solutions. The diluted solutions were subjected to conventional spectrofluorimetry by excitation light having a wavelength of 550 nm.
A fraction of Solution IIA and a fraction of Solution IIB were diluted so that the concentration of Compound 6 was the same in these diluted solutions. The diluted solutions were subjected to conventional spectrofluorimetry by excitation light having a wavelength of 550 nm.

Structure (SMILES)	change of absorbance due to interaction with DNA (salmon sperm DNA [1])	shift of absorption bands to longer wavelengths due to interaction with DNA (salmon sperm DNA [1])	fluorescence of solution not containing DNA (salmon sperm DNA [2])	fluorescence wavelength of solution containing DNA (fluoresces intensely) (salmon sperm DNA [2])
CN(C)c1ccc(-c2cc(CCCC(=O)O)[o+]c(-c3ccc(N(C)C)cc3)c2)cc1.[I-] [Compound 3, 2-(3-carboxypropyl)-4,6-bis(4-N,N-dimethylaminophenyl)pyrylium iodide]	decreased	30 nm	does not fluoresce	~640 nm
CN(C)c1ccc(-c2cc(CCC(=O)O)[o+]c(-c3ccc(N(C)C)cc3)c2)cc1.[I-] [Compound 6, 2-(2-carboxyethyl)-4,6-bis(4-N,N-dimethylaminophenyl)pyrylium iodide]	decreased	30 nm	does not fluoresce	~640 nm
